{"source": "patent US20260053767A1", "about": "“Hepatoprotective Compositions And Methods” (Jemyll, Ltd., priority 2022, published 2026)", "key": {"cancer bearing mice": {"tested_on": "cancer bearing mice", "test": "Administration of DDDA to cancer bearing mice", "details": "mouse, in vivo", "excerpt": "Thus, DDDA in low doses (5 g or less, or 4 g or less, or 3 g, or less, or 2 g or less, or 1 g or less) may be used for chemoprevention of HCC in healthy liver or livers of NASH/NAFLD individuals, presumably due to reduction of chronic subacute inflammation."}, "liver of rats": {"tested_on": "liver of rats", "test": "qReal time-PCR gene expression in the liver of rats from in vivo study 1 and 2", "design": "species or system Wistar rats", "experimental": "Panels A and B. • Study 1: Twenty adult Wistar rats, aged 8-10 weeks, were included in the study. The rats were housed in individual cages at 22° C. with 12-h light cycles and had ad libitum access to food and water. Rats were fed a high fat high cholesterol diet (44% Carbohydrate, 14% Protein, 42% fat+0.2% Cholesterol) for 4 weeks in the presence or absence of 1% Dodecanedioic acid, sodium salt dissolved in the water (FIG. 25, Panel A). Body weight and food/water intake were monitored weekly. • Study 2: Twenty adult Wistar rats, aged 8-10 weeks, were included in the study. The rats were housed in individual cages at 22° C. with 12-h light cycles and had ad libitum access to food and water. Rats were fed a high fat-high cholesterol diet (44% Carbohydrate, 14% Protein, 42% fat+0.2% Cholesterol). After 9 weeks of diet, rats were randomly assigned to one of the following groups: 4 weeks of high fat-high cholesterol diet or 4 weeks of high fat-high cholesterol diet and 1% Dodecanedioic acid, sodium salt dissolved in the water (FIG. 25, Panel B). Body weight and food/water intake were monitored weekly.\nTotal RNA from human primary hepatocytes was extracted using the RNeasy Plus Mini Kit according to the indications provided by the company. A small aliquot of total RNA obtained (3 μl) was subjected to qualitative and quantitative control by using the microdrop. The qualitative and quantitative assessment of the individual samples was determined using a dedicated software. The total RNA was reverse transcribed into cDNA by using iScript RT. SYBR Green gene expression assays were performed according to the manufacturer's instruction using the iQTMSYBR Green Supermix and the CFX96 Touch Real-Time PCR Detection System. For this purpose, the following pairs of primer were used: solute carrier family 13 member 5 (SLC13A5) (forward 5′ […] 3′ (SEQ ID NO:1) and reverse 5′ […] 3′ (SEQ ID NO:2)), Diacylglycerol O-Acyltransferase 1 (DGAT1) (forward 5′ […] 3′ (SEQ ID NO:3) and reverse 5′ […] 3′ (SEQ ID NO:4)), Fatty Acid Synthase (FASN) (forward 5′ […] 3′ (SEQ ID NO:5) and reverse 5′ […] 3′ (SEQ ID NO:6)), carnitine palmitoyltransferase 1A (CPT1A) (forward 5′ […] 3′ (SEQ ID NO:7) and reverse 5′ […] 3′ (SEQ ID NO:8)) and Acetyl-CoA carboxylase (ACC1) (forward 5′ […] 3′ (SEQ ID NO:9) and reverse 5′ […] 3′ (SEQ ID NO:10)). mRNA expression levels were normalized to B2-microglobulin (forward 5′[…] 3′ (SEQ ID NO:11); and reverse 5′[…] 3′ (SEQ ID NO:12)) and quantification of relative gene expression, presented as percentage of the relevant baseline, was calculated using the 2-ACT (comparative threshold) method.\nC12 decrease de novo lipogenesis and an increase in fatty acid oxidation in vitro and in vivo: To test the hypothesis that C12 could affect de novo lipogenesis and fatty acid beta-oxidation, human primary hepatocytes were stimulated with palmitic acids (0.4 mM) in the presence or absence of C12 1% (v/w). […] Similar results were also observed in our in vivo experiments. […] Data from in vivo study 1 and 2 were pooled together."}, "SIRT enzymes": {"tested_on": "SIRT enzymes", "test": "Global SIRT activity in liver cells", "assay_type": "cell-based", "details": "AML-12 liver cells", "excerpt": "(§1) To that end, the inventors used endothelial cells (EOMA cells) and liver cells (AML-12 cells) in vitro and quantified various markers in response to exposure of the cells to environmental challenge in the presence and absence of DDA at low concentrations. Unless indicated otherwise, the DDA concentration in the in vitro experiments was 5 mcg per microliter. More specifically, the inventors measured p-H2AX protein levels as a marker for DNA damage, PGC-1α protein levels as a marker for mitochondrial biogenesis, NAMPT enzyme levels as a marker for potential for NAD+ production, and total antioxidant capacity as a marker of cellular health. In addition, the inventors also measured global SIRT activity as a gauge of activity for all SIRT enzymes, and in particular SIRT1 enzyme levels as markers for autophagy and various beneficial processes associated with a caloric restricted diet, and SIRT3 levels as markers for mitochondrial function and longevity.\nIn still further experiments, the liver cells were also tested for global SIRT activity and exemplary results are shown in FIG. 6."}, "PGC-1α": {"tested_on": "PGC-1α", "test": "PGC-1α protein levels in liver cells (marker for mitochondrial biogenesis)", "assay_type": "cell-based", "details": "AML-12 liver cells", "excerpt": "as §1\nThe inventors also evaluated activity of DDA on energy metabolism, and particularly on mitochondrial health and/or mitochondrial biogenesis. The protein followed was PGC-1α, a known marker for mitochondrial biogenesis, and exemplary results are depicted in FIG. 7. […] Such finding is not entirely unexpected as PGC-1α is a transcriptional co-activator and as such tightly regulated."}, "[1]": {"tested_on": "liver cells (AML-12 cells)", "test": "DNA damage (p-H2AX protein levels) in liver cells", "assay_type": "cell-based", "details": "AML-12 liver cells, 6 hours; p=0.068", "excerpt": "as §1\nFinally, the inventors also investigated whether or not DDDA could have a protective effect against peroxide induced DNA damage, and exemplary results are shown in FIG. 11. […] N=5-6 plates per treatment."}, "[2]": {"details": "in vivo study 1 and 2 pooled, vs control group"}, "[3]": {"details": "rats from in vivo study 1 and 2, vs control group"}}}
{"smiles": "O=C(O)CCCCCCCCCCC(=O)O", "note": "[DDDA, dodecanedioic acid]", "values": [{"measurement": "effect in cancer bearing mice", "setting": "cancer bearing mice", "result": "helpful for liver blastomas and potentially NASH associated carcinomas"}, {"measurement": "ACC1 (de novo lipogenesis enzyme) in liver", "setting": "liver of rats; [2]", "result": "decrease"}, {"measurement": "CPT1A (fatty acid beta-oxidation enzyme) in liver", "setting": "liver of rats; [2]", "result": "significant increase"}, {"measurement": "DGAT (de novo lipogenesis enzyme) in liver", "setting": "liver of rats; [2]", "result": "decrease"}, {"measurement": "FASN (de novo lipogenesis enzyme) in liver", "setting": "liver of rats; [2]", "result": "decrease"}, {"measurement": "gene expression of citrate transporter SLC13A5 in liver", "setting": "liver of rats; [2]", "result": "decrease"}, {"measurement": "COLA1A gene expression in liver", "setting": "liver of rats; [3]", "result": "decreased expression"}, {"measurement": "TGFβ gene expression in liver", "setting": "liver of rats; [3]", "result": "decreased expression"}, {"measurement": "αSMA gene expression in liver", "setting": "liver of rats; [3]", "result": "decreased expression"}, {"measurement": "global SIRT activity", "setting": "SIRT enzymes; 6 hours, in the presence of hydrogen peroxide, p<0.001", "result": "increased global SIRT activity in a statistically significant manner"}, {"measurement": "global SIRT activity", "setting": "SIRT enzymes; 24 hours, no hydrogen peroxide, same trend, p=0.065", "result": "did not reach a level of significance"}, {"measurement": "PGC-1α levels", "setting": "PGC-1α; 6 hours, p=0.001", "result": "increased PGC1α levels"}, {"measurement": "PGC-1α levels", "setting": "PGC-1α; 24 hours, pattern relative to 6 hours", "result": "paradoxically reversed"}, {"measurement": "peroxide induced DNA damage", "setting": "[1]", "result": "trend towards decreased DNA damage"}]}
